Laboratory results from US4870097A, “Pharmaceutical use of derivatives of tryptophan” (priority 1984, dated 1989).

The compounds below were run on guinea pig gall bladder contracted with CCK-8 (assay: Anti-CCK activity on guinea pig gall bladders in vitro). Conditions: CCK-8 10 ng/ml, concentration antagonising 50% of contracting effect.
Format: biochemical
Protocol: A longitudinal strip of guinea pig gall bladder is placed in a bath of Krebs for isolated organs at a temperature of 32° C. and oxygenated continuously with an oxygen-CO2 mixture (95-5 V/V).
The […] contractions are detected by means of a force transducer and recorded.
The gall bladder is contracted with the use of a CCK-8 solution at a concentration of 10 ng/ml; the antagonistic activity of the compounds of the invention towards the contracting effect of the CCK is determined with the use of different concentrations, the ED50 value, that is the concentration of the compound in mcg/ml capable of antagonising 50% of the contracting effect of the CCK, being determined.
The results obtained are set out in the following table which gives the compounds tested and the ED50 values which are calculated by the method of regression on a test of at least three experiments for each compound studied.

**Q.** `Cc1ccc(C(=O)N[C@@H](Cc2c[nH]c3ccccc23)C(=O)O)cc1C` [Compound 29] was tested. Which “Anti CCK-8 activity, ED50” value did it give?
**A.** The value was “IN (inactive up to 400 mcg/ml)”.

**Q.** `O=C(N[C@@H](Cc1c[nH]c2ccccc12)C(=O)O)c1ccc(C(F)(F)F)cc1` [Compound 30] was tested. Which “Anti CCK-8 activity, ED50” value did it give?
**A.** Its value is “IN (inactive up to 400 mcg/ml)”.

**Q.** How did the “Anti CCK-8 activity, ED50” value turn out when `N#Cc1ccc(C(=O)N[C@@H](Cc2c[nH]c3ccccc23)C(=O)O)cc1` [Compound 31] was run?
**A.** The value was “IN (inactive up to 400 mcg/ml)”.

**Q.** For `N#Cc1cccc(C(=O)N[C@@H](Cc2c[nH]c3ccccc23)C(=O)O)c1` [Compound 32], which “Anti CCK-8 activity, ED50” value is on record?
**A.** Its value is “IN (inactive up to 400 mcg/ml)”.

The compounds below were run on analgesic activity of DALA (assay: Tail Flick test: increase in the analgesic activity of DALA (i.c.v.)). Conditions: b802: 0.001 g/kg.
Format: in vivo, rats
Protocol: In order to check one of the possible mechanisms for the action of the compounds of the invention, that is, their possible inhibition of the enzymatic degradation of endogenous enkephalins, the following experiment was carried out:
A cannula was implanted in the right lateral ventricle of male rats having a weight of 150-200 g (groups of five animals were used) in order to allow the intracerebroventricular (i.c.v.) administration of drugs according to the method of Noble et al (Life Science 6, (1970) 281-291).
The animals were subsequently treated (i.c.v.) with 3 μg of D-ala-methionine-enkephalinamide (DALA) immediately after an injection (i.c.v.) of the compounds under study at the doses given in Table 4. Analgesia was tested for by the Tail Flick method already mentioned, at the times

**Q.** With `CCCN(CCC)C(=O)C(CCC(=O)O)NC(=O)c1ccccc1` (stereo not shown) [proglumide, reference compound] as the compound, how does the “potentiating action on the analgesic effect of DALA (in words)” value read?
**A.** The value was “highly significant”.

Each compound was assayed on analgesic activity of morphine (assay: Tail Flick Test: increase in the analgesic effect of morphine). Conditions: 10'; compound 10 mg/kg i.p. + morphine 2 mg/kg (row Morphine: alone); ± S.E.
Format: in vivo, rats
Protocol: Increase in the analgesic effect of analgesic-narcotic drugs in rats in the Tail Flick Test
The method is that described by Harris et al. (J. Pharmacol. Exp. Ther. 143 (1964) 141-148).
Male rats are used which have a weight of about 150-200 g and which have not been fasting. A point is chosen on the tail and this is irradiated by a heat source (75° C.) and the time (in seconds) for which the animal remains without moving its tail is measured.
A maximum period of time under the heat source of 8 seconds is chosen after which the animal is, in any case, removed in order to avoid tissue damage. The measurement is effected before (controls) and after treatment with the drugs.
. The percentage variation is calculated for each individual animal by the following formula: [formula] The measurements are carried out 10, 20, 30, 45, 60 and 90 minutes after treatment with the analgesics.
The results obtained are given in Table 1 which records the groups treated and the doses administered, the
average percentage variations (calculated on groups of five animals) in […]

**Q.** Which “percentage variation in the latency of the pain sensation, 10'” value (“percentage variation in the latency … 10'” for short) does the source give for `Cc1ccc(C(=O)N[C@@H](Cc2c[nH]c3ccccc23)C(=O)O)cc1C` [Compound 29] here?
**A.** The value was 54.7 ± 14.1%.

**Q.** How did the “percentage variation in the latency … 10'” value turn out when `O=C(N[C@@H](Cc1c[nH]c2ccccc12)C(=O)O)c1ccc(C(F)(F)F)cc1` [Compound 30] was run?
**A.** The value was 9.8 ± 10.5%.

**Q.** For `N#Cc1ccc(C(=O)N[C@@H](Cc2c[nH]c3ccccc23)C(=O)O)cc1` [Compound 31], which “percentage variation in the latency … 10'” value is on record?
**A.** The value was 67.6 ± 16.1%.

**Q.** How did the “percentage variation in the latency … 10'” value turn out when `N#Cc1cccc(C(=O)N[C@@H](Cc2c[nH]c3ccccc23)C(=O)O)c1` [Compound 32] was run?
**A.** The value was 18.7 ± 6.7%.

Same assay, conditions: 20'; compound 10 mg/kg i.p. + morphine 2 mg/kg (row Morphine: alone); ± S.E.

**Q.** `Cc1ccc(C(=O)N[C@@H](Cc2c[nH]c3ccccc23)C(=O)O)cc1C` [Compound 29] was tested. Which “percentage variation in the latency of the pain sensation, 20'” value (from here on “percentage variation in the latency … 20'”) did it give?
**A.** The value was 62.6 ± 16.5%.

**Q.** `O=C(N[C@@H](Cc1c[nH]c2ccccc12)C(=O)O)c1ccc(C(F)(F)F)cc1` [Compound 30] was tested. Which “percentage variation in the latency … 20'” value did it give?
**A.** Its value is 45.6 ± 16.1%.

**Q.** How did the “percentage variation in the latency … 20'” value turn out when `N#Cc1ccc(C(=O)N[C@@H](Cc2c[nH]c3ccccc23)C(=O)O)cc1` [Compound 31] was run?
**A.** Its value is 66.3 ± 3.5%.

**Q.** Which “percentage variation in the latency … 20'” value does the source give for `N#Cc1cccc(C(=O)N[C@@H](Cc2c[nH]c3ccccc23)C(=O)O)c1` [Compound 32] here?
**A.** Its value is 60.7 ± 15.5%.

Same assay, conditions: 30'; compound 10 mg/kg i.p. + morphine 2 mg/kg (row Morphine: alone); ± S.E.

**Q.** `Cc1ccc(C(=O)N[C@@H](Cc2c[nH]c3ccccc23)C(=O)O)cc1C` [Compound 29] was tested. Which “percentage variation in the latency of the pain sensation, 30'” value (from here on “percentage variation in the latency … 30'”) did it give?
**A.** The value was 62.8 ± 17.5%.

**Q.** Which “percentage variation in the latency … 30'” value does the source give for `O=C(N[C@@H](Cc1c[nH]c2ccccc12)C(=O)O)c1ccc(C(F)(F)F)cc1` [Compound 30] here?
**A.** Its value is 69.3 ± 22.2%.

**Q.** Which “percentage variation in the latency … 30'” value does the source give for `N#Cc1ccc(C(=O)N[C@@H](Cc2c[nH]c3ccccc23)C(=O)O)cc1` [Compound 31] here?
**A.** Its value is 81.4 ± 14.7%.

**Q.** With `N#Cc1cccc(C(=O)N[C@@H](Cc2c[nH]c3ccccc23)C(=O)O)c1` [Compound 32] as the compound, how does the “percentage variation in the latency … 30'” value read?
**A.** The value was 63.7 ± 16.3%.

Same assay, conditions: 45'; compound 10 mg/kg i.p. + morphine 2 mg/kg (row Morphine: alone); ± S.E.

**Q.** For `Cc1ccc(C(=O)N[C@@H](Cc2c[nH]c3ccccc23)C(=O)O)cc1C` [Compound 29], which “percentage variation in the latency of the pain sensation, 45'” value (from here on “percentage variation in the latency … 45'”) is on record?
**A.** Its value is 65.9 ± 16.0%.

**Q.** Which “percentage variation in the latency … 45'” value does the source give for `O=C(N[C@@H](Cc1c[nH]c2ccccc12)C(=O)O)c1ccc(C(F)(F)F)cc1` [Compound 30] here?
**A.** Its value is 62.3 ± 21.9%.

**Q.** Which “percentage variation in the latency … 45'” value does the source give for `N#Cc1ccc(C(=O)N[C@@H](Cc2c[nH]c3ccccc23)C(=O)O)cc1` [Compound 31] here?
**A.** Its value is 73.4 ± 18.0%.

**Q.** `N#Cc1cccc(C(=O)N[C@@H](Cc2c[nH]c3ccccc23)C(=O)O)c1` [Compound 32] was tested. Which “percentage variation in the latency … 45'” value did it give?
**A.** Its value is 63.7 ± 16.3%.

Same assay, conditions: 60'; compound 10 mg/kg i.p. + morphine 2 mg/kg (row Morphine: alone); ± S.E.

**Q.** For `Cc1ccc(C(=O)N[C@@H](Cc2c[nH]c3ccccc23)C(=O)O)cc1C` [Compound 29], which “percentage variation in the latency of the pain sensation, 60'” value (from here on “percentage variation in the latency … 60'”) is on record?
**A.** The value was 51.4 ± 12.7%.

**Q.** Which “percentage variation in the latency … 60'” value does the source give for `O=C(N[C@@H](Cc1c[nH]c2ccccc12)C(=O)O)c1ccc(C(F)(F)F)cc1` [Compound 30] here?
**A.** Its value is 54.8 ± 17.6%.

**Q.** For `N#Cc1ccc(C(=O)N[C@@H](Cc2c[nH]c3ccccc23)C(=O)O)cc1` [Compound 31], which “percentage variation in the latency … 60'” value is on record?
**A.** The value was 77.4 ± 10.3%.

**Q.** How did the “percentage variation in the latency … 60'” value turn out when `N#Cc1cccc(C(=O)N[C@@H](Cc2c[nH]c3ccccc23)C(=O)O)c1` [Compound 32] was run?
**A.** Its value is 45.8 ± 16.1%.

Same assay, conditions: 90'; compound 10 mg/kg i.p. + morphine 2 mg/kg (row Morphine: alone); ± S.E.

**Q.** How did the “percentage variation in the latency of the pain sensation, 90'” value (from here on “percentage variation in the latency … 90'”) turn out when `Cc1ccc(C(=O)N[C@@H](Cc2c[nH]c3ccccc23)C(=O)O)cc1C` [Compound 29] was run?
**A.** Its value is 52.5 ± 15.7%.

**Q.** With `O=C(N[C@@H](Cc1c[nH]c2ccccc12)C(=O)O)c1ccc(C(F)(F)F)cc1` [Compound 30] as the compound, how does the “percentage variation in the latency … 90'” value read?
**A.** Its value is 24.7 ± 15.5%.

**Q.** Which “percentage variation in the latency … 90'” value does the source give for `N#Cc1ccc(C(=O)N[C@@H](Cc2c[nH]c3ccccc23)C(=O)O)cc1` [Compound 31] here?
**A.** The value was 21.3 ± 16.5%.

**Q.** For `N#Cc1cccc(C(=O)N[C@@H](Cc2c[nH]c3ccccc23)C(=O)O)c1` [Compound 32], which “percentage variation in the latency … 90'” value is on record?
**A.** Its value is 22.8 ± 12.2%.

Same assay, conditions: mean 10'-90'; compound 10 mg/kg i.p. + morphine 2 mg/kg (row Morphine: alone)

**Q.** `Cc1ccc(C(=O)N[C@@H](Cc2c[nH]c3ccccc23)C(=O)O)cc1C` [Compound 29] was tested. Which “M(10'-90') average percentage variation” value did it give?
**A.** The value was 58.3%.

**Q.** With `O=C(N[C@@H](Cc1c[nH]c2ccccc12)C(=O)O)c1ccc(C(F)(F)F)cc1` [Compound 30] as the compound, how does the “M(10'-90') average percentage variation” value read?
**A.** The value was 43.6%.

**Q.** Which “M(10'-90') average percentage variation” value does the source give for `N#Cc1ccc(C(=O)N[C@@H](Cc2c[nH]c3ccccc23)C(=O)O)cc1` [Compound 31] here?
**A.** The value was 64.6%.

**Q.** With `N#Cc1cccc(C(=O)N[C@@H](Cc2c[nH]c3ccccc23)C(=O)O)c1` [Compound 32] as the compound, how does the “M(10'-90') average percentage variation” value read?
**A.** Its value is 43.0%.

Same assay, conditions: rat, in vivo

**Q.** `Cc1ccc(C(=O)N[C@@H](Cc2c[nH]c3ccccc23)C(=O)O)cc1C` [Compound 29] was tested. Which “Potency ratio relative to morphine alone” value did it give?
**A.** Its value is 1.96.

**Q.** With `O=C(N[C@@H](Cc1c[nH]c2ccccc12)C(=O)O)c1ccc(C(F)(F)F)cc1` [Compound 30] as the compound, how does the “Potency ratio relative to morphine alone” value read?
**A.** The value was 1.46.

**Q.** `N#Cc1ccc(C(=O)N[C@@H](Cc2c[nH]c3ccccc23)C(=O)O)cc1` [Compound 31] was tested. Which “Potency ratio relative to morphine alone” value did it give?
**A.** The value was 2.17.

**Q.** Which “Potency ratio relative to morphine alone” value does the source give for `N#Cc1cccc(C(=O)N[C@@H](Cc2c[nH]c3ccccc23)C(=O)O)c1` [Compound 32] here?
**A.** The value was 1.44.
